From patent publication US20040002445A1, “Enhancement of endogenous gonadotropin production” (priority 2002, published 2004)

How the values were obtained:
plasma testosterone = test: Phase 1 study of oral leuprolide acetate for 28 days, hormonal response (plasma testosterone); format: in vivo, human; conditions: for Testosterone levels: healthy males
Source text: Twenty subjects were assigned to each dosing group.

serum LH = conditions: two stimulations with 25 mcg each on 3 consecutive days, 12 normally menstruating females; cited from earlier work
plasma LH and FSH = conditions: intermittent, but not continuous, administration; cited from earlier work

For `CCNC(=O)[C@@H]1CCCN1C(=O)[C@H](CCCNC(=N)N)NC(=O)[C@H](CC(C)C)NC(=O)[C@@H](CC(C)C)NC(=O)[C@H](Cc1ccc(O)cc1)NC(=O)[C@H](CO)NC(=O)[C@H](Cc1c[nH]c2ccccc12)NC(=O)[C@H](Cc1c[nH]cn1)NC(=O)[C@@H]1CCC(=O)N1` [leuprolide acetate], the “Testosterone levels relative to baseline” value (plasma testosterone; Group A, 5 mg q.d. oral) was “failed to raise the levels of testosterone above the baseline”, the Testosterone levels (plasma testosterone; Group A, 5 mg q.d. oral, Day 2, baseline 453.25) was 452.45 ng/dL and the Testosterone levels (plasma testosterone; Group A, 5 mg q.d. oral, Day 3, baseline 453.25) was 406.25 ng/dL. For the same compound, the Testosterone levels (plasma testosterone; Group A, 5 mg q.d. oral, Day 4, baseline 453.25) was 384.70 ng/dL, the Testosterone levels (plasma testosterone; Group A, 5 mg q.d. oral, Day 5, baseline 453.25) was 430.55 ng/dL and the Testosterone levels (plasma testosterone; Group A, 5 mg q.d. oral, Day 6, baseline 453.25) was 434.55 ng/dL. For the same compound, the Testosterone levels (plasma testosterone; Group A, 5 mg q.d. oral, Day 7, baseline 453.25) was 413.75 ng/dL, the Testosterone levels (plasma testosterone; Group A, 5 mg q.d. oral, Day 8, baseline 453.25) was 405.85 ng/dL and the Testosterone levels (plasma testosterone; Group A, 5 mg q.d. oral, Day 9, baseline 453.25) was 358.8 ng/dL. For the same compound, the Testosterone levels (plasma testosterone; Group A, 5 mg q.d. oral, Day 10, baseline 453.25) was 369.80 ng/dL, the “Testosterone levels relative to baseline” value (plasma testosterone; Group B, 5 mg b.i.d. oral) was “higher than the baseline until Day 7” and the Testosterone levels (plasma testosterone; Group B, 5 mg b.i.d. oral, Day 2, baseline 485.00) was 563.5 ng/dL. It also gave a Testosterone levels (plasma testosterone; Group B, 5 mg b.i.d. oral, Day 3, baseline 485.00) of 541.35 ng/dL, a Testosterone levels (plasma testosterone; Group B, 5 mg b.i.d. oral, Day 4, baseline 485.00) of 527.40 ng/dL and a Testosterone levels (plasma testosterone; Group B, 5 mg b.i.d. oral, Day 5, baseline 485.00) of 502.85 ng/dL. For the same compound, the Testosterone levels (plasma testosterone; Group B, 5 mg b.i.d. oral, Day 6, baseline 485.00) was 493.25 ng/dL, the Testosterone levels (plasma testosterone; Group B, 5 mg b.i.d. oral, Day 7, baseline 485.00) was 484.75 ng/dL and the Testosterone levels (plasma testosterone; Group B, 5 mg b.i.d. oral, Day 8, baseline 485.00) was 449.10 ng/dL. The Testosterone levels (plasma testosterone; Group B, 5 mg b.i.d. oral, Day 9, baseline 485.00) was 427.65 ng/dL, the Testosterone levels (plasma testosterone; Group B, 5 mg b.i.d. oral, Day 10, baseline 485.00) was 428.95 ng/dL and the “Elevation of plasma testosterone, comparison of dose groups” value (plasma testosterone; Group B, 5 mg b.i.d., compared with Group C, 10 mg q.d.) was “more significant elevation of plasma testosterone”. The “Testosterone levels relative to baseline” value (plasma testosterone; Group C, 10 mg q.d. oral) was “higher than the baseline until Day 6”, the Testosterone levels (plasma testosterone; Group C, 10 mg q.d. oral, Day 2, baseline 458.85) was 495.85 ng/dL and the Testosterone levels (plasma testosterone; Group C, 10 mg q.d. oral, Day 3, baseline 458.85) was 501.00 ng/dL. The Testosterone levels (plasma testosterone; Group C, 10 mg q.d. oral, Day 4, baseline 458.85) was 492.20 ng/dL, the Testosterone levels (plasma testosterone; Group C, 10 mg q.d. oral, Day 5, baseline 458.85) was 463.90 ng/dL and the Testosterone levels (plasma testosterone; Group C, 10 mg q.d. oral, Day 6, baseline 458.85) was 412.65 ng/dL. It also gave a Testosterone levels (plasma testosterone; Group C, 10 mg q.d. oral, Day 7, baseline 458.85) of 435.50 ng/dL, a Testosterone levels (plasma testosterone; Group C, 10 mg q.d. oral, Day 8, baseline 458.85) of 409.00 ng/dL and a Testosterone levels (plasma testosterone; Group C, 10 mg q.d. oral, Day 9, baseline 458.85) of 428.05 ng/dL. It also gave a Testosterone levels (plasma testosterone; Group C, 10 mg q.d. oral, Day 10, baseline 458.85) of 405.95 ng/dL.

For “gonadotropin releasing hormone (QHWSYGLRPG; Gonadoliberin-1; UniProt P01148 24-33, looked up) [GnRH, hormone that is secreted by the hypothalamus in a pulsating fashion, also known as LH-RH]”, the “Serum LH levels” value (serum LH) is listed as “Increases in serum LH levels” and the “Plasma LH and FSH levels” value (plasma LH and FSH) is listed as “increases in plasma LH and FSH levels”.
